These results are taken from article PMC4786873, “Spacer-free BODIPY fluorogens in antimicrobial peptides for direct imaging of fungal infection in human tissue” (Nature Communications, 2016).

Entries after “also recorded” stand apart in the source; their conditions may differ. Like-named read-outs stand apart in the source and are kept apart here. Starred links: 1 amine or outer side, 2 acyl side, 3 side chain; linkers in the order of their positions; H or OH if unused. Non-standard residues stand in square brackets, D forms with d. Residues, ends and D or L forms follow the SMILES beside them. No end group written: not given here. X1 = CC1=CC(C)=[N+]2C1=C(c1cccc(-c3[nH]c4ccccc4c3C[C@H](N[*:1])C(=O)[*:2])c1)c1c(C)cc(C)n1[B-]2(F)F Bounds are passed on as bounds.

Data set [1] relates to Escherichia coli (ATCC 25922). Put plainly: In vitro antimicrobial activity (bacterial cell viability, OD600). The class given is cell-based. The following applies: 16 h incubation with peptide at its respective IC50 concentration (A. fumigatus), OD600 nm, n=3. Here is the method: (§1) P. aeruginosa (ATCC 47085), K. pneumoniae (ATCC BAA1706) and E. coli (ATCC 25922) were grown on Lysogeny Broth (LB) agar plates and stored at 4 °C. For assays, a single colony of bacteria was taken into 10 mL liquid broth and incubated at 37 °C for 16 h. Cultures were centrifuged at 4,000 r.p.m. for 5 min and the pellet was re-suspended in 1 ml of fresh PBS and washed three times. Cultures were reconstituted to 1.0 OD595 nm, then diluted 1:1,000 and incubated with compounds 4–8 at the indicated concentrations (that is, concentrations matching the IC50 values in A. fumigatus for all compounds, except for compounds 3 and 5a where a top concentration of 20 μM was used). Cell viability was monitored over 16 h by measuring OD600 nm in a spectrophotometer. Data is represented as % of cell viability as means from at least two independent experiments with n=3.

Data set [2] relates to Pseudomonas aeruginosa (ATCC 47085). The data set is described as above. The following applies: 16 h incubation with peptide at its respective IC50 concentration (A. fumigatus), OD600 nm, n=3. Type of data set: cell-based. On the procedure: as §1
Data set [3] deals with Klebsiella pneumoniae (ATCC BAA1706). Described as above. The class given is cell-based. The following applies: 16 h incubation with peptide at its respective IC50 concentration (A. fumigatus), OD600 nm, n=3. Here is the method:
as §1

Data set [4] has as its system human lung A549 epithelial cells. In words: MTT cell viability assay. The class given is cell-based. The following applies: MTT, 0, 1.25, 2.5, 5 and 10 μM, 4 h at 37 °C, absorbance 570 nm, means ± s.d., n=4. On the procedure:
Cell viability was determ ined with a TACS® MTT Cell Proliferation assa y (Trevigen) according to the m anufacturer’s instructions. Briefly, hum an lung A549 epithelial cells were plated on 96-well plates the day before the experim ent, reaching 90- 95% confluence on the day of the experim ent. T he peptide 8 was added to the cells at different concentrations (0, 1.25, 2.5, 5 and 10 µM) and incubated at 37 °C for 4 h. After 4 h, cells were washed, treated according to the m anufacturer’s instructions and their absorbance values (570 nm) were m easured in a Syner gy HT spectrophotom eter (Biotek ). Cell viabilit y data was norm alised to the proliferation of cells without addition of the peptide 8.
Supplementary Figure 17. Cell proliferation assays. Viabilit y of hum an lung A549 epithelial cells after incubation with different concentrations of the peptide 8 . D ata r epresented as m eans ± s.d. (n=4).
(§2) (1 picture or pasted object on this page, not shown here)
A general note: Tetrazolium assays rely on reduction of a dye to a coloured formazan, in cell work by metabolically active cells.

Data set [5] in a line: Chemical stability in human bronchoalveolar lavages. The class given is in vitro ADME. To be noted: human bronchoalveolar lavage from patients with acute respiratory distress syndrome, 37 °C; for remaining at 1 h, 20 μM / remaining at 3 h, 20 μM / remaining at 24 h, 20 μM: HPLC-UV (C18); for remaining at 1 h, 20 μM: read-out: chemical stability in human bronchoalveolar lavage, percentage at 1 h (measure not given); for remaining at 3 h, 20 μM: read-out: chemical stability in human bronchoalveolar lavage, percentage at 3 h (measure not given); for remaining at 24 h, 20 μM: read-out: chemical stability in human bronchoalveolar lavage, percentage at 24 h (measure not given). Here is the method: Peptides 5 and 8 (20 μM) were dissolved in human bronchoalveolar lavage samples (total volume: 100 μl) and incubated at 37 °C for the indicated times. Samples were injected into an high-performance liquid chromatography Agilent 1100 separations module connected to a UV detector with a Discovery C18 column (5 μm, 4.6 × 50 mm). Matrix-assisted laser desorption/ionization data was recorded on a Bruker Ultraflex mass spectrometer using sinapinic acid as the matrix.
Supplementary Figure 9 . Stability of cyclic (8) and linear (5) mono-BODIPY labelled peptid es in human bronchoalveolar lavage samples from p atients w ith acute respiratory distress synd rome.
Pept ides were incubat ed in hum an bronchoalveolar lavage sam ples at 37 °C and anal ysed b y H PLC at the tim e points indicated. Arrows point at the peak s corresponding to the intact linear peptide.
as §2

Data set [6] concerns Aspergillus fumigatus (strain CEA10). The class given is cell-based. The following applies: for activity / affinity in A. fumigatus, in words: values only in Supplementary Fig. 8 (picture not shown), 9 compared with linear PAF26 (4). Here is the method:
The A. fumigatus (strain CEA10, source: FGSC A1163) was grown on Vogel's medium at 37 °C for 5 days before the spores (conidia) were harvested. Peptides 4–8 were incubated at different concentrations with A. fumigatus conidia to reach a final volume of 100 μl per well. The final conidia concentration was 5 × 10^5 cells ml^−1 in 10% Vogel's medium. After 24 h incubation at 37 °C in 96 well-plates, fungal growth was determined by measuring OD610nm in a spectrophotometer. IC50 values were determined using four parameter logistic regression. Data is represented as means±s.e.m from at least three independent experiments with n=3.
Antimicrobial and ha emolysis assays.
Supplementary Figure 4. Determination of IC50 values of BODIPY-labelled peptides 5- 8 in A. fumigatus. Cell viability plots and non- linear regressions for peptides 5 (A), 6 (B), 7 (C) and 8 (D).
Peptides were incubated at different concentrations with A. fumigatus conidia to r each a final volum e of 100 μ L per well. T he final conidia concentration was 5 × 10^5 cells/m L in 10% Vogel’s m edium . After 24 h incubation at 37 °C in 96 well-plates, fungal growth was determ ined by m easuring the optical densit y at 610 nm . The IC50 values were determ ined using four param eter logistic regression. Data represented as m eans ± s.e.m (n=3).
as §2

The test system of a further data set is human RBCs. Put plainly: Determination of haemolytic activity. Type of data set: cell-based. To be noted: red cells of human, 1 h. Here is the method: Erythrocytes were isolated from freshly drawn, anticoagulated human blood and diluted in PBS (1:5). An amount of 50 μl of erythrocyte suspension was added to 50 μl of compounds 4–8 at the indicated concentrations (that is, concentrations matching the IC50 values in A. fumigatus for all compounds, except for compounds 3 and 5a where a top concentration of 20 μM was used). 0.2% Triton X-100 was used as positive control and PBS as negative control. The plate was incubated at 37 °C for 1 h, each well was diluted with 150 μl of PBS and the plate was centrifuged at 1,200g for 15 min. A total of 100 μl of the supernatant from each well was transferred to a fresh plate, and the absorbance at 350 nm was measured in a microplate reader. Data is represented as % of cell viability as means from three independent experiments with n=3.
Supplementary Figure 6. Haemolytic activity of peptides 4-8 in human red blood cells (RBCs).
Peptides 4-8 and T riton X-100 (0.2% as positive control) were incubated with hum an RBCs at 37 °C and their viabilit y was assessed after 1 h. Data repres ented as m eans ± s.d. (n=3). *** for p < 0.001 was determ ined as a statis tically s ignificant difference between the c ell viabilities in PBS (phosphate buffer saline) and in T riton X-100.
as §2

The mark [7] stands for this setting: conidia 5 × 10^5 cells/ml in 10% Vogel's medium, 24 h at 37 °C, OD610 nm, four parameter logistic regression, means±s.e.m., n=3, read-out: IC50 in Aspergillus fumigatus.

For orientation: IC50 means the concentration at which inhibition is half-maximal. The molecule `CC1=CC(C)=[N+]2C1=C(c1cccc(-c3[nH]c4ccccc4c3C[C@@H]3NC(=O)[C@H](CCCCN)NC(=O)[C@H](CCCCN)NC(=O)[C@H](CCCNC(=N)N)NC(=O)CNC(=O)[C@H](Cc4c[nH]c5ccccc45)NC(=O)[C@H](Cc4ccccc4)NC3=O)c1)c1c(C)cc(C)n1[B-]2(F)F` [compound 8] (cyclo(FWGRKK[X1])) yielded a quantum yield in phospholipid membranes of 30%. In addition, the “cell viability, Escherichia coli” value in data set [1] amounted to 96%. Also, in data set [2], the “cell viability, Pseudomonas aeruginosa” value is given as over 99%. For the same molecule, in data set [3], the “cell viability, Klebsiella pneumoniae” value is 94%. For the same molecule, in data set [4], the “cytotoxicity in human lung A549 epithelial cells, in words” value is “No significant differences; also recorded: no cytotoxicity”. In addition, the “stability in human bronchoalveolar lavages, in words” value in data set [5] (after 24 h, 20 μM, HPLC-UV) is “remained intact”. Further, in data set [5] (peptide 20 μM), the remaining at 1 h, 20 μM turned out to be 99%; the remaining at 3 h, 20 μM was determined as 99%; the remaining at 24 h, 20 μM is 95%. Besides, the “affinity for fungal cells compared with peptide 5” value in data set [6] (comparison of IC50 values in A. fumigatus) is “around two-fold enhanced affinity”. Further, the IC50 in data set [6] (setting [7]) is 2000 ± 100 nM.

For the molecule `CC1=CC(C)=[N+]2C1=C(c1cccc(-c3[nH]c4ccccc4c3C[C@H](NC(=O)[C@H](Cc3ccccc3)NC(=O)[C@H](Cc3c[nH]c4ccccc34)NC(=O)[C@H](CCCCN)NC(=O)[C@H](CCCCN)NC(=O)[C@@H](N)CCCNC(=N)N)C(N)=O)c1)c1c(C)cc(C)n1[B-]2(F)F` [compound 6] (H-RKKWF[X1]-NH2), the “cell viability, Escherichia coli” value in data set [1] was determined as 95%. In data set [2], the “cell viability, Pseudomonas aeruginosa” value is listed as over 99%. Besides, in data set [3], the “cell viability, Klebsiella pneumoniae” value came to 96%. Also, the IC50 in data set [6] (setting [7]) was 3000 ± 100 nM.

As usually defined, the half-life is the time needed for the level to fall by half in the phase considered. A lower half-life goes with rapid decline. With `CC1=CC(C)=[N+]2C1=C(c1cccc(-c3[nH]c4ccccc4c3C[C@H](NC(=O)[C@H](CCCCN)NC(=O)[C@H](CCCCN)NC(=O)[C@@H](N)CCCNC(=N)N)C(=O)N[C@@H](Cc3ccccc3)C(=O)N[C@@H](Cc3c[nH]c4ccccc34)C(N)=O)c1)c1c(C)cc(C)n1[B-]2(F)F` [compound 5] (H-RKK[X1]FW-NH2), in data set [1], the “cell viability, Escherichia coli” value was 94%. Besides, the “cell viability, Pseudomonas aeruginosa” value in data set [2] was over 99%. Further, the “cell viability, Klebsiella pneumoniae” value in data set [3] is 87%. Moreover, in data set [5] (peptide 20 μM), the remaining at 1 h, 20 μM is 49%; the remaining at 3 h, 20 μM was 2%; the remaining at 24 h, 20 μM was under 1%. The half-life at 20 μM in data set [5] (peptide 20 μM, HPLC-UV) is under 1 h. The IC50 in data set [6] (setting [7]) was found to be 3600 ± 100 nM.

Regarding `CC1=CC(C)=[N+]2C1=C(c1cccc(-c3[nH]c4ccccc4c3C[C@H](NC(=O)[C@H](CCCCN)NC(=O)[C@H](CCCCN)NC(=O)[C@@H](N)CCCNC(=N)N)C(=O)N[C@@H](C)C(=O)N[C@@H](C)C(N)=O)c1)c1c(C)cc(C)n1[B-]2(F)F` [5b] (H-RKK[X1]AA-NH2), the “activity / affinity in A. fumigatus, in words” value in data set [6] is on record as “reduced activity”.

Regarding `CC1=CC(C)=[N+]2C1=C(c1cccc(-c3[nH]c4ccccc4c3C[C@H](NC(=O)[C@H](C)NC(=O)[C@H](C)NC(=O)[C@H](C)N)C(=O)N[C@@H](Cc3ccccc3)C(=O)N[C@@H](Cc3c[nH]c4ccccc34)C(N)=O)c1)c1c(C)cc(C)n1[B-]2(F)F` [5a] (H-AAA[X1]FW-NH2), the “activity / affinity in A. fumigatus, in words” value in data set [6] is on record as “poor activity”.

With “RKKWFW-NH2 [compound 4, reference compound]”, in data set [1], the “cell viability, Escherichia coli” value is listed as over 99%. For the same molecule, the “cell viability, Pseudomonas aeruginosa” value in data set [2] was over 99%. In addition, in data set [3], the “cell viability, Klebsiella pneumoniae” value is given as 93%. For the same molecule, in the data set on human RBCs, the “cell viability, human RBCs (haemolysis)” value is listed as 99%. In data set [6] (strain CEA10, 24 h), this molecule gave an IC50 of 7900 ± 200 nM.

For `CC1=CC(C)=[N+]2C1=C(c1cccc(-c3[nH]c4ccccc4c3C[C@H](NC(=O)[C@H](Cc3ccccc3)NC(=O)[C@H](Cc3c(-c4cccc(C5=C6C(C)=CC(C)=[N+]6[B-](F)(F)n6c(C)cc(C)c65)c4)[nH]c4ccccc34)NC(=O)[C@H](CCCCN)NC(=O)[C@H](CCCCN)NC(=O)[C@@H](N)CCCNC(=N)N)C(N)=O)c1)c1c(C)cc(C)n1[B-]2(F)F` [compound 7], the “cell viability, Escherichia coli” value in data set [1] is 95%. In data set [2], the “cell viability, Pseudomonas aeruginosa” value is recorded as over 99%. The “cell viability, Klebsiella pneumoniae” value in data set [3] was 93%. The IC50 in data set [6] (setting [7]) came out at 2500 ± 100 nM.
